Measurements from US12590099B2, “Inhibitors of histone deacetylase useful for the treatment or prevention of HIV infection” (Merck Sharp & Dohme LLC, priority 2018, dated 2026).

Assays:
Format in all cases: biochemical
[1] = biological target: T1, Recombinant human HDAC1 (Homo sapiens, UniProt Q13547); assay: Human HDAC enzyme inhibitor Fluor-de-Lys assay, HDAC1
T1 construct: FLAG (C); made in house
Summary of the method: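 Fluor-de-Lys format at room temperature (23° C.): compounds titrated 10-point, 1:3, preincubated with HDAC before substrate addition; HDAC1 run at 0.3 nM enzyme with 20 μM BML-KI104. Developer with excess HDAC inhibitor ends the reaction, and trypsin-liberated AMC fluorescence is the read-out.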

[2] = biological target: T2, Recombinant human HDAC3/SMRT heterodimer (Homo sapiens, UniProt O15379); assay: Human HDAC enzyme inhibitor Fluor-de-Lys assay, HDAC3/SMRT
T2 construct: FLAG (C); made in house
T2 sequence (O15379 whole entry): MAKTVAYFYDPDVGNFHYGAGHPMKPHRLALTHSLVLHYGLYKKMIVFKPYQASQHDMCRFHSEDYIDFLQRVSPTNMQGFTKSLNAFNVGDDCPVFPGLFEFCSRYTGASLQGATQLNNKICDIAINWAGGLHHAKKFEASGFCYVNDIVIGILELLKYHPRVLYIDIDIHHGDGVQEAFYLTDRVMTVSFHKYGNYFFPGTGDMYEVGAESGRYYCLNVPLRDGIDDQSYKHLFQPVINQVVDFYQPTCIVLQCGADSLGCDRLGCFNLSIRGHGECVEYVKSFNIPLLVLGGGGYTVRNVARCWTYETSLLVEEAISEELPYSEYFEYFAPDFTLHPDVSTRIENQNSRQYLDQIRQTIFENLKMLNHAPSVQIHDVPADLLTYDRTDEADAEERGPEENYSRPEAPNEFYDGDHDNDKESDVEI
T2 sequence (Q9Y618 1-899 partner limits assumed): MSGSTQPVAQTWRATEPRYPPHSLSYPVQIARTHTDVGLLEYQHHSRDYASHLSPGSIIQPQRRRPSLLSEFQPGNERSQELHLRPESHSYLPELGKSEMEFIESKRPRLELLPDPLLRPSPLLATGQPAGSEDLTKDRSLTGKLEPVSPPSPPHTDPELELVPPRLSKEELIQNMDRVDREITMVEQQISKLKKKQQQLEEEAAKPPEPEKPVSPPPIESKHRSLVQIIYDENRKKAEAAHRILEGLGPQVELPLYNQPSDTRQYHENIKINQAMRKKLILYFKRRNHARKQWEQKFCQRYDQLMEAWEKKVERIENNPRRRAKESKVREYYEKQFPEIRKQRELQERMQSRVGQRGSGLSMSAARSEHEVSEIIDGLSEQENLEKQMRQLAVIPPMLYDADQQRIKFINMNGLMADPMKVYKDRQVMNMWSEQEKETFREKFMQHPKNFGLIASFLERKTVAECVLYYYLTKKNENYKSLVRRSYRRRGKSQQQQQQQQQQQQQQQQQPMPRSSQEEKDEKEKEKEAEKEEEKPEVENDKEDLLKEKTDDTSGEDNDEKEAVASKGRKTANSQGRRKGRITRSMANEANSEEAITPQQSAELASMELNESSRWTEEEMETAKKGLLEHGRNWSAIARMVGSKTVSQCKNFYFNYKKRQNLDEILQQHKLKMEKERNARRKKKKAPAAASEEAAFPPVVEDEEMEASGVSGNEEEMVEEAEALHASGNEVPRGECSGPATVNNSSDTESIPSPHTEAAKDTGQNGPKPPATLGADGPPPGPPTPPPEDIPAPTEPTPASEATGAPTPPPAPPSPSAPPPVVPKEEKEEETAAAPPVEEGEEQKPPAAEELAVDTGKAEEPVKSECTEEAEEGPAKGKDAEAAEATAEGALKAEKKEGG

[3] = biological target: T3, HDAC6 (Homo sapiens, UniProt Q9UBN7); assay: Human HDAC enzyme inhibitor Fluor-de-Lys assay, HDAC6
T3 sequence (Q9UBN7 1-1215): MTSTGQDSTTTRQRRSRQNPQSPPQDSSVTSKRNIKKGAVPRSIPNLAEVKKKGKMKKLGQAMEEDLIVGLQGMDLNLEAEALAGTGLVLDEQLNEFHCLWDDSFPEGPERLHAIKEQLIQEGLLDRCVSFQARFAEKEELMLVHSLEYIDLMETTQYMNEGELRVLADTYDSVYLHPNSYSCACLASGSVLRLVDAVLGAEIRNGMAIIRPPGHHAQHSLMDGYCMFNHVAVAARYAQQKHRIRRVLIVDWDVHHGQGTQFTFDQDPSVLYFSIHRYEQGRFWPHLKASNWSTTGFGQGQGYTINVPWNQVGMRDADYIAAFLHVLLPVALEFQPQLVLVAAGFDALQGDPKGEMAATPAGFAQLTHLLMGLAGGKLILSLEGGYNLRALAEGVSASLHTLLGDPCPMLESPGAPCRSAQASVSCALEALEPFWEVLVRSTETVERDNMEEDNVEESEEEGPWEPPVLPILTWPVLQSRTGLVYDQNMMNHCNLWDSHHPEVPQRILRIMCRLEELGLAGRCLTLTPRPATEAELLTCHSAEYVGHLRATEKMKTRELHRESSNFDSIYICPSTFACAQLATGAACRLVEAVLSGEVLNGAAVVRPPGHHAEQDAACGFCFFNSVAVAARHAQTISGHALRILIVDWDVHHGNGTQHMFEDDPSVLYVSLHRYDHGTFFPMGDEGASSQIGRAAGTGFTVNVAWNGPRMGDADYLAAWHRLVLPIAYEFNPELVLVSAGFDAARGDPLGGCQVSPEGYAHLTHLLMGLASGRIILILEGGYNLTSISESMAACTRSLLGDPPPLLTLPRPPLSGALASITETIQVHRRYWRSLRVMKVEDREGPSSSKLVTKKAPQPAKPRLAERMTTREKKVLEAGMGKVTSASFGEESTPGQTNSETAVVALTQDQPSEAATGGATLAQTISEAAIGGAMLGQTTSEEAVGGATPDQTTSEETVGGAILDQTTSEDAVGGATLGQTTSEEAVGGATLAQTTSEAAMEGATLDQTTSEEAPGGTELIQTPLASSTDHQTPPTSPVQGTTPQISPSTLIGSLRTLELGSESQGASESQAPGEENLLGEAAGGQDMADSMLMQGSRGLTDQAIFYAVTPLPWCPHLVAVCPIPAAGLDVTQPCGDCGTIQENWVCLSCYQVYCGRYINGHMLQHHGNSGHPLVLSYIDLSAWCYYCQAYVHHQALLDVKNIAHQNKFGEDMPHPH

[4] = biological target: T4, Recombinant human HDAC8 (Homo sapiens, UniProt Q9BY41); assay: Human HDAC enzyme inhibitor Fluor-de-Lys assay, HDAC8
T4 construct: purchased Enzo Life Sciences BML-SE145-0100
T4 sequence (Q9BY41 1-377): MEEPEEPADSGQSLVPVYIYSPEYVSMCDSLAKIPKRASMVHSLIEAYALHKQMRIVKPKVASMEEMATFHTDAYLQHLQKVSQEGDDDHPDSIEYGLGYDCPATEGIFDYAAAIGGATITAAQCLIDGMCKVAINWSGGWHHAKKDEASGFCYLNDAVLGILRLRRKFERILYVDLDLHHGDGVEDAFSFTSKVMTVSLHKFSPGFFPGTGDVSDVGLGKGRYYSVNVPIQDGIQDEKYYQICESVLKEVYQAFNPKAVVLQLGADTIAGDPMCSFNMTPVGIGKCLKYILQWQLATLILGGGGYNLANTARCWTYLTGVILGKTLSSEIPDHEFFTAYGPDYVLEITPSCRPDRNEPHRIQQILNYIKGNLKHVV

T1 sequence (Q13547 whole entry): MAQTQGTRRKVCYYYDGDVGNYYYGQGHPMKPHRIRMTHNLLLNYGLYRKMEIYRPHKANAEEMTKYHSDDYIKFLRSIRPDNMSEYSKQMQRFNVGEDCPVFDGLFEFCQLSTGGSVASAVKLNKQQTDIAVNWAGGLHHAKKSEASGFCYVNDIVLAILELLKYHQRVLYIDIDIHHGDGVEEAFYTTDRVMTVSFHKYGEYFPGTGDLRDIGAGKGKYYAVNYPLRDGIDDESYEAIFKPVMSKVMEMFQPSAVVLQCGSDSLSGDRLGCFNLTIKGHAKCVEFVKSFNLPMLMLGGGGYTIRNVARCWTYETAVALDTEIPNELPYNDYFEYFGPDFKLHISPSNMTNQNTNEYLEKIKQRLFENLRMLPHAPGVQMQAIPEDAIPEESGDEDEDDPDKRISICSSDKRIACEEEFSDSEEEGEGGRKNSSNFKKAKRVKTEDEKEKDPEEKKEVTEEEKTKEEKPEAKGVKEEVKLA

| Structure (SMILES) | IC50 [1] [nM] | IC50 [2] [nM] | IC50 [3] [nM] | IC50 [4] [nM] |
| --- | --- | --- | --- | --- |
| CCC(=O)CCCCC[C@H](NC(=O)[C@H]1CC12CCN(C)CC2)c1ncc(-c2cc(OC)c3ccccc3n2)[nH]1 [Compound 170] | 5.79 | 4.84 | 923 | 835 |
| CCC(=O)CCCCC[C@H](NC(=O)[C@H]1CC12CCN(C)CC2)c1ncc(-c2ccc3nc(C)cc(Cl)c3c2)[nH]1 [Compound 174] | 0.55 | 0.43 | 951 | 1210 |
| CCC(=O)CCCCC[C@H](N)c1ncc(-c2ccc3nc(C)ccc3c2)[nH]1 [Compound 178] | 107 | 54.9 | > 45000 | 3260 |
| C=CCN1CCC2(CC1)C[C@@H]2C(=O)N[C@@H](CCCCCC(=O)CC)c1ncc(-c2ccc3c(c2)C2CCC3N2CC=C)[nH]1 (stereo partly drawn) [Compound 179, (1S)—N-{(1S)-7-oxo-1-[5-(9-prop-2-en-1-yl-1,2,3,4-tetrahydro-1,4-epiminonaphthalen-6-yl)-1H-imidazol-2-yl]nonyl}-6-prop-2-en-1-yl-6-azaspiro[2.5]octane-1-carboxamide] | 58.3 | 17.5 | 9530 | 8660 |
| C=CCN1CCC2(CC1)C[C@@H]2C(=O)N[C@@H](CCCCCC(=O)CC)c1ncc(-c2cccc3c2C2CCC3N2CC=C)[nH]1 (stereo partly drawn) [Compound 180, (1S)—N-{(1S)-7-oxo-1-[5-(9-prop-2-en-1-yl-1,2,3,4-tetrahydro-1,4-epiminonaphthalen-5-yl)-1H-imidazol-2-yl]nonyl}-6-prop-2-en-1-yl-6-azaspiro[2.5]octane-1-carboxamide] | 5.4 | 2.55 | 2120 | 270 |
| CCN1CCC2(CC1)C[C@@H]2C(=O)N[C@@H](CCCCCC(=O)CC1CCC1)c1ncc(-c2cc3ccc(C)nc3cc2OC)o1 [Compound 184] | 9.51 | 18.4 | 9280 | > 45000 |
| COc1cc2nc(C)ccc2cc1-c1cnc([C@H](CCCCCC(=O)CC2CCC2)NC(=O)[C@H]2CC23CCN(C)CC3)o1 [Compound 185] | 15.1 | 26 | 36400 | > 45000 |
| CCC(=O)CCCCC[C@H](NC(=O)[C@H]1CC12CCN(CC)CC2)c1ncc(-c2cc3nn(C)cc3cc2OC)o1 [Compound 189] | 7.33 | 2.34 | 159 | 27500 |
| CCC(=O)CCCCC[C@H](NC(=O)[C@H]1CC12CCN(C)CC2)c1nnc(-c2cc3ccc(C)nc3cc2OC)o1 [Compound 191] | 2.16 | 1.68 | 2050 | 43200 |
| CCC(=O)CCCCC[C@H](NC(=O)C1=NOC2(CCN(C)CC2)C1)c1ncc(-c2cc3ccc(=O)n(C)c3cc2OC)o1 [Compound 193] | 3.01 | 1.81 | > 900 | > 900 |
| COc1cc2nc(C)ccc2cc1-c1cnc([C@H](CCCCCC(=O)CC2CC2)NC(=O)[C@H]2CC23CCN(C)CC3)o1 [Compound 195, (1S)—N-{(1S)-8-cyclopropyl-1-[5-(7-methoxy-2-methylquinolin-6-yl)-1,3-oxazol-2-yl]-7-oxooctyl}-6-methyl-6-azaspiro[2.5]octane-1-carboxamide] | 0.86 | 1.71 | 21500 | 7860 |
| CCC(=O)CCCCC[C@H](NC(=O)C1=NOC2(CCN(C)CC2)C1)c1ncc(-c2cc3ccc(C)nc3cc2OC)o1 [Compound 196] | 1.42 | 0.73 | 759 | > 900 |
| CCC(=O)CCCCC[C@H](NC(=O)[C@H]1CC12CCN(C)CC2)c1ncc(-c2cc3ccc(=O)n(C)c3cc2OC)o1 [Compound 198] | 0.87 | 0.65 | 426 | > 900 |
| CCN1CCC2(CC1)C[C@@H]2C(=O)N[C@@H](CCCCCC(=O)CC1CC1)c1ncc(-c2ccc(F)cc2)[nH]1 [Compound 201] | 7.18 | 8.06 | 35800 | 14200 |
| CCC(=O)CCCCC[C@H](NC(=O)C1=NOC2(CCN(CC)CC2)C1)c1ncc(-c2cc3ccc(C)nc3cc2OC)o1 [Compound 204] | 0.34 | 0.7 | 592 | > 900 |
| CCC(=O)CCCCC[C@H](NC(=O)C1=NOC2(CCN(CC)CC2)C1)c1ncc(-c2cc3ccc(C)nc3cc2OC)[nH]1 [Compound 207] | 0.24 | 0.36 | 1350 | 1590 |
| CCC(=O)CCCCC[C@H](N)c1ncc(-c2cc3ccc(C)nc3cc2OC)[nH]1 [Compound 209, (S)-9-amino-9-(5-(7-methoxy-2-methylquinolin-6-yl)-1H-imidazol-2-yl)nonan-3-one] | 52.9 | 21.6 | > 900 | 144 |
| CCC(=O)CCCCC[C@H](NC(=O)[C@H]1CC12CCN(CC)CC2)c1nc(-c2cc3ccc(C)nc3cc2OC)cn1COC(=O)C(C)(C)C [Compound 215, {2-[(1S)-1-({[(1S)-6-ethyl-6-azaspiro[2.5]oct-1-yl]carbonyl}amino)-7-oxononyl]-4-(7-methoxy-2-methylquinolin-6-yl)-1H-imidazol-1-yl}methyl 2,2-dimethylpropanoate] | 0.89 | 1.15 | > 900 | > 900 |
| CCC(=O)CCCCC[C@H](NC(=O)C1=NOC2(CCN(C)CC2)C1)c1ncc(-c2cc3ccncc3nc2OC)o1 [Compound 216] | 7.11 | 13.5 | 786 | > 900 |
| CCC(=O)CCCCC[C@H](NCCN(C)C)c1ncc(-c2cc3ccc(C)nc3cc2OC)[nH]1 [Compound 217, (9S)-9-{[2-(dimethylamino)ethyl]amino}-9-[5-(7-methoxy-2-methylquinolin-6-yl)-1H-imidazol-2-yl]nonan-3-one] | 4.56 | 10.9 | > 900 | > 900 |
| CCC(=O)CCCCC[C@H](NC(=O)C1=NOC2(CCN(CC3CC3)CC2)C1)c1ncc(-c2cc3ccc(C)nc3cc2OC)[nH]1 [Compound 219] | 0.1 | 0.34 | > 900 | > 900 |
| CCC(=O)CCCCC[C@H](NC(=O)[C@H]1CC12CCN(C)CC2)c1ncc(-c2cc(OC)ncc2F)o1 [Compound 220] | 29.9 | 33.5 | > 900 | > 900 |
| CCC(=O)CCCCC[C@H](NC(=O)C1=NOC2(CCN(C)CC2)C1)c1ncc(-c2cc3ccc(C)nc3cc2F)o1 [Compound 221] | 8.62 | 13.6 | > 900 | > 900 |
